Data reported in patent US8053441B2, “Pyrazolylquinazolinones as potassium channel openers” (Janssen Pharmaceutica N.V., priority 2006, dated 2011).

Molecular target: T1, KATP channels (Homo sapiens, UniProt O60706+Q14654)
T1 construct: TE671 human medulloblastoma cells were obtained from ATCC; host or cells: TE671 human medulloblastoma cells
Assay: Potassium Channel Assay (FLIPR membrane potential)
Format: cell-based
Parameters: key: A compound was designated as active if it produced greater than or equal to 10% response at 30 μM; A compound was designated as inactive if it produced less than 10% response at 30 μM
Conditions: TE671 human medulloblastoma cells, 30 μM, Membrane Potential Assay Dye
Description: TE671 human medulloblastoma cells were obtained from ATCC and grown in Dulbecco's modified Eagle's medium (DMEM) supplemented with 10% fetal bovine serum, 100 U/ml penicillin and 100 U/ml streptomycine.
The day before testing, the cells were plated in black 96-well plates at 50K/well. On the day of testing, the growth media was removed, then 100 μl of FLIPR buffer (20 mM HEPES, 120 mM NaCl, 2 mM KCl, 2 mM CaCl2, 1 mM MgCl2, 5 mM Glucose) and 100 μl of Membrane Potential Assay Dye (Molecular Devices) dissolved in FLIPR buffer were added to each well. The cells were incubated at room temperature for 15 to 30 min.
The effect of test compounds on KATP channels were evaluated on a fluorometric imaging plate reader (FLIPR, Molecular Devices) at room temperature. After a baseline period, 50 μl of 5× stock solution of test compound prepared in FLIPR buffer was added and fluorescent change was monitored for 3 minutes. After this reading, glyburide, a KATP channel blocker, was added to a final concentration of 5 μM to check the specificity of the test compound as a KATP channel openers. Hyperpolarization resulting from KATP channel opening was observed as a decrease in fluorescent intensity.
Representative compounds of the present invention were tested according to the procedure described above, with results as listed in Table 2 below. Test compound activity was determined as the percent. A compound was designated as active if it produced greater than or equal to 10% response at 30 μM.

T1 sequence (O60706 1-1549 isoform O60706-2): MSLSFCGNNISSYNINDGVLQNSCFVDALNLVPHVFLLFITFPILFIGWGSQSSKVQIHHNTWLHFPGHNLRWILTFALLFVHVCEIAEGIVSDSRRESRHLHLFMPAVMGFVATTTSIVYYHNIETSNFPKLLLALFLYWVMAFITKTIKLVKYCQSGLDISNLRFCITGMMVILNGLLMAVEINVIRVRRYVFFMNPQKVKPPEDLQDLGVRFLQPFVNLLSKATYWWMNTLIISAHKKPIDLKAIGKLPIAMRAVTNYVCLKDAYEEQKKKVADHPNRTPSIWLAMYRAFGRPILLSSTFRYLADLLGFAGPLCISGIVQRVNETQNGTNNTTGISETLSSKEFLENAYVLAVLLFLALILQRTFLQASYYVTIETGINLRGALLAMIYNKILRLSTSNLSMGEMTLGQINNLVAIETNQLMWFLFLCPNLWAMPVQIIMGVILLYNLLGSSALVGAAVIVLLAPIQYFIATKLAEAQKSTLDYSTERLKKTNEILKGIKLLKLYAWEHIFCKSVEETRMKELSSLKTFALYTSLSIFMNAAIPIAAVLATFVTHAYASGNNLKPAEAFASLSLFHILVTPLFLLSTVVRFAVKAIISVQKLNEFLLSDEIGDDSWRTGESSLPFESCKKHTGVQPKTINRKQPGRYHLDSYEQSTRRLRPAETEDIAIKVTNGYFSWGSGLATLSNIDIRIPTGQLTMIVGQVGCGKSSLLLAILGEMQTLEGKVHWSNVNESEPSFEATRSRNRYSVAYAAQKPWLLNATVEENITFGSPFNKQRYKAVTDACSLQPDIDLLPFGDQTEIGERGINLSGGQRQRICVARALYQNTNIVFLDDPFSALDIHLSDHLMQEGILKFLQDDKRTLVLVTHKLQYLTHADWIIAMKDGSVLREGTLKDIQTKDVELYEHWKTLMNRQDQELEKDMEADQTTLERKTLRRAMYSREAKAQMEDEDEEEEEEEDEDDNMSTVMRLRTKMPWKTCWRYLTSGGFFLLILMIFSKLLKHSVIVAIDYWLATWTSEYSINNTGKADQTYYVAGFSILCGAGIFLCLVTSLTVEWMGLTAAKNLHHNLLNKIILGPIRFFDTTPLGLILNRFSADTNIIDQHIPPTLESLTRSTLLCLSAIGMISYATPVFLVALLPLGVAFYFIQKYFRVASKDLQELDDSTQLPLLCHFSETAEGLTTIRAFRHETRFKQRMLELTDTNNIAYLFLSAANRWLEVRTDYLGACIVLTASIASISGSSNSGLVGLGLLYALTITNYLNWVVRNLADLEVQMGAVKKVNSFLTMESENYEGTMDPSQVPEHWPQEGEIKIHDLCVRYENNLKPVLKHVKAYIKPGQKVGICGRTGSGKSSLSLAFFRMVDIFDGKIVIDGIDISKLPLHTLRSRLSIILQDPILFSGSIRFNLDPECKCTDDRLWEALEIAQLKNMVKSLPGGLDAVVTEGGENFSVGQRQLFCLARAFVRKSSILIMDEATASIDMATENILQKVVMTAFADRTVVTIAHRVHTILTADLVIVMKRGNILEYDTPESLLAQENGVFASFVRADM
T1 sequence (Q14654 whole entry): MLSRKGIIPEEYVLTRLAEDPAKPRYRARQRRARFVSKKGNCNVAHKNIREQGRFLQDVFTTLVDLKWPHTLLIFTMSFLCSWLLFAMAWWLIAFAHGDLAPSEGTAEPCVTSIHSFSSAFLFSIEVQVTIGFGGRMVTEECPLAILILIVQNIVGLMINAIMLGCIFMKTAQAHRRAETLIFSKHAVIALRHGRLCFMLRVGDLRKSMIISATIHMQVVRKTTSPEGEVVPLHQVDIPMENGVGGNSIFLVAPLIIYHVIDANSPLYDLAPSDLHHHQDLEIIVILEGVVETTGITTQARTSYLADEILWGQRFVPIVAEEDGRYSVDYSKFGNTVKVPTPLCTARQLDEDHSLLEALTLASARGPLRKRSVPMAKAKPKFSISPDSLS

response, active:
CCOC(=O)C1=NNC(C)(c2nc3ccc(Cl)cc3c(=O)[nH]2)C1 (stereo not shown) [compound 4, 5-(6-Chloro-4-oxo-3,4-dihydro-quinazolin-2-yl)-5-methyl-4,5-dihydro-1H-pyrazole-3-carboxylic acid ethyl ester]
CC1(c2nc3cc(C(F)(F)F)ccc3c(=O)[nH]2)CC=NN1 (stereo not shown) [compound 3, 2-(3-Methyl-3,4-dihydro-2H-pyrazol-3-yl)-7-trifluoromethyl-3H-quinazolin-4-one]
CC1(c2nc3ccc(Br)cc3c(=O)[nH]2)CC=NN1 (stereo not shown) [compound 2, 6-Bromo-2-(3-methyl-3,4-dihydro-2H-pyrazol-3-vi)-3H-quinazolin-4-one]
CC1(c2nc3ccc(Cl)cc3c(=O)[nH]2)CC=NN1 (stereo not shown) [compound 1, 6-Chloro-2-(3-methyl-3,4-dihydro-2H-pyrazol-3-vi)-3H-quinazolin-4-one]
